Measurements as given in BindingDB's records for doi:10.1021/acs.jmedchem.0c01160 (University of Groningen, 2020).

Target: T1, Macrophage migration inhibitory factor (Homo sapiens, UniProt P14174)
T1 sequence (P14174 whole entry): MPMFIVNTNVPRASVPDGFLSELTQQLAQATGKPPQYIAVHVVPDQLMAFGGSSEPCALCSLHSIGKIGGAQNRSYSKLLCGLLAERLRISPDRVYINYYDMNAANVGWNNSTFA
Assay: Inhibition of C-terminal His-tagged recombinant human MIF expressed in Escherichia coli BL21 (DE3) using 4-HPP as substrate preincubated for 10 mins followed by substrate addition by UV absorption spectrum analysis

O=C(O)c1ccc(-c2ccc(-c3cc4ccc(O)cc4oc3=O)cc2)cc1
IC50: 71 nM
